Experimental data taken from US11926613B2, “Kinase inhibitors for the treatment of central and peripheral nervous system disorders” (UNIVERSITY OF MIAMI, priority 2017, dated 2024).

Assays:
[1] = system: Primary Neurons; experiment: HCS neurite outgrowth assay (High Content Screening with Primary Neurons); type: cell-based; conditions: Primary neuron
[2] = system: neurons from hippocampi of E18 rat embryos; experiment: Neurite growth length (% NTL) in cultured E18 rat hippocampal neurons, 9-point dose response, 48 hours; type: cell-based; conditions: Rattus norvegicus, Neuron, 48 h; for activity at 0.078 µM: 78 nM; for activity at 0.156 µM: 156 nM; for activity at 0.312 µM: 312 nM; for activity at 0.625 µM: 625 nM
Description: PRE-COATING CULTURE PLATES: On the day before the experiment, 96-well plates were pre-coated by plating 50 μl of Poly-D-lysine solution (PDL, 0.5 mg/mL) in each well. The next morning, the plates were washed four or five times with HBSS or PBS (150 μl/rinse), then left in buffer until cell plating
PREPARING THE CELLS: A timed pregnant rat carrying E18 embryos was euthanized using an IACUC approved method. In a laminar flow hood, the embryos were removed and placed in a petri dish containing Hank's Balanced Salt Solution (HBSS) with 20 mM HEPES, pH 7.3. Pup brains were dissected (see Meberg et al., 2003) and hippocampi were collected in 15 mL a conical tube containing Hibernate E with SM1 (2% v/v).
Dissociation media was prepared by combining 4.5 mL of Hibernate E (without SM1) with 0.5 mL of trypsin and 100 μl of DNAse solution. The medium over the hippocampi was carefully removed and replaced with dissociation solution, then incubated at 37° C. for 15-20 minutes, occasionally swirling the tube.
Using flame polished cotton plugged Pasteur pipettes, the dissociation media was removed, and then 5 mL of Hibernate E containing SM1 were added. The tube was swirled to thoroughly wash the tissue. The tissue was allowed to settle to the bottom of the tube, and the rinse solution was carefully removed. This step was repeated 5 times to dilute out trypsin and DNAse and remove any debris from lysed cells.
The final rinse media was removed from the tube and 1 pipette-full (1-2 mL) of Hibernate E with SM1 was added. Using the flame-polished Pasteur pipette (pre-wetted with rinse media), the tube was triturated until all cells had dissociated and no visible chunks of tissue remained. Fewer than ten triturations were typically performed. The volume was adjusted to 8-12 mL using Hibernate E containing SM1, the well was mixed and cell concentration was determined.
PLATING: The cells were diluted in culture media (NbActiv4 Cell-culture media) to a final concentration of 10,000 cells/mL. The HBSS was aspirated from PDL coated plates, and 150 μL of cell solution was loaded in the middle 48 wells at 1500 cells per well. Water was loaded in the outer wells to decrease evaporation from edge wells. Cells were allowed to adhere for 2 hours in tissue culture incubator prior to treatment.
TREATMENT: Compounds were diluted to various concentrations to provide 9 dose response concentrations of 20 μM, 10 μM, 5, μM, 2.5 μM, 1.25 μM, 0.625 μM, 0.3125 μM, 0.15625 μM, and 0.078125 μM. The plates were cultured for 48 hours, exposed to the compound at the various dose response concentrations.
FIXING THE CULTURES: The culture medium was removed from the plates and immediately replaced with 100-200 μl of warm (37° C.) 4% paraformaldehyde (PFA) solution in phosphate-buffered saline (PBS). The cells were fixed for 15-20 minutes at room temperature, and then rinsed with PBS (200 μl/well×3).
STAINING AND IMAGING: The PBS was removed and replaced with 100 μl of blocking/permeabilization buffer (PBS, 0.2% fish gelatin, 0.03% Triton X-100, 0.02% NaN3), then incubated overnight at 4° C. To this was added 100 μl of primary antibody solution (mouse anti-Beta III tubulin in blocking buffer) and incubate overnight at 4° C. The wells were rinsed with PBS (200 μl×3), which was then removed and replaced with 100 μl of secondary antibody solution (Goat anti-mouse Alexa 488, 10 μg/ml Hoechst 33342, 0.2% fish gelatin, 0.02% azide, in PBS). The plate was shaken gently on a rotating shaker for 2 hours, then rinsed with PBS (200 μl×5).
The plate was imaged using a Cellomics ArrayScan VTI in 2 different channels for nuclear staining (Hoechst) and cell body/neurite staining (βIII-tubulin). Typically, nine fields per well were imaged with a 5× objective and automatically traced by the Neuronal Profiling Bioapplication. To get reproducible results, at least 200-300 valid neurons were measured per condition. […]

Structure (SMILES)	EC50 [1] [µM]	activity at 0.078 µM [2] [%]	activity at 0.156 µM [2] [%]	activity at 0.312 µM [2] [%]	activity at 0.625 µM [2] [%]	activity at 1.25 µM [2] [%]	activity at 2.5 µM [2] [%]	activity at 5 µM [2] [%]	activity at 10 µM [2] [%]	activity at 20 µM [2] [%]
O=C(Nc1ccncc1NC(=O)c1ccncc1)c1ccc(C(=O)c2ccccc2)cc1 [Example A3, N-[4-(4-benzoylbenzamido)pyridin-3-yl]pyridine-4-carboxamide]	0.798	98.3	99.9	96.3	92.6	96.7	95.1	93.6	92.9	96.6
COc1ccc(OC)c(C(=O)c2ccc(C(=O)Nc3ccccc3NC(=O)c3ccncc3)cc2)c1F [Example A4, N-{2-[4-(2-fluoro-3,6-dimethoxybenzoyl)benzamido]phenyl}pyridine-4-carboxamide]	9.64	102	99	110	93.2	105	114	114	132	161
COc1ccc(O)c(C(=O)c2ccc(C(=O)Nc3ccccc3NC(=O)c3ccncc3)cc2)c1F [Example A5, N-{2-[4-(2-fluoro-6-hydroxy-3-methoxybenzoyl)benzamido]phenyl}pyridine-4-carboxamide]	10.4	97.8	102	97.2	102	102	113	116	124	132
O=C(Nc1ccccc1NC(=O)c1ccc(C(=O)c2ccccc2)cc1)c1ccncc1 [Example A6, N-[2-(4-benzoylbenzamido)phenyl]pyridine-4-carboxamide]	1.67	94.7	106	83	95.4	94.1	92.9	105	107	121
O=C(c1ccccc1)c1ccc(C(=O)N2CCN(C(=O)c3ccncc3)CC2)cc1 [Example A7, 1-(4-benzoylbenzoyl)-4-(pyridine-4-carbonyl)piperazine]	1.67	97	94.8	95.7	91.2	90.8	88.3	92	86.4	91.8
COc1ccc(OC)c(C(=O)c2ccc(C(=O)N3CCN(C(=O)c4ccncc4)CC3)cc2)c1F [Example A8, 1-[4-(2-fluoro-3,6-dimethoxybenzoyl)benzoyl]-4-(pyridine-4-carbonyl)piperazine]	> 20	99.2	98.7	96.4	99	92.9	94.4	93.8	93.2	81.6
COc1ccc(O)c(C(=O)c2ccc(C(=O)N3CCN(C(=O)c4ccncc4)CC3)cc2)c1F [Example A9, 3-fluoro-4-methoxy-2-{4-[4-(pyridine-4-carbonyl)piperazine-1-carbonyl]benzoyl}phenol]	4.92	94.5	91.5	90.7	96.6	88	98.9	98.3	89.6	89.1
O=C(N[C@@H]1c2ccccc2C[C@H]1NC(=O)c1ccncc1)c1ccc(C(=O)c2ccccc2)cc1 [Example A11, N-[(1R,2R)-1-(4-benzoylbenzamido)-2,3-dihydro-1H-inden-2-yl]pyridine-4-carboxamide]	5.58	104	102	87.4	93.8	91.7	98.5	94.6	110	110
COc1ccc(OC)c(C(=O)c2ccc(C(=O)N[C@@H]3c4ccccc4C[C@H]3NC(=O)c3ccncc3)cc2)c1F [Example A12, N-[(1R,2R)-1-[4-(2-fluoro-3,6-dimethoxybenzoyl)benzamido]-2,3-dihydro-1H-inden-2-yl]pyridine-4-carboxamide]	> 20	96.6	90.7	91.2	93.1	90.6	91	106	98.6	119
COc1ccc(O)c(C(=O)c2ccc(C(=O)N[C@@H]3c4ccccc4C[C@H]3NC(=O)c3ccncc3)cc2)c1F [Example A14, N-[(1R,2R)-1-[4-(2-fluoro-6-hydroxy-3-methoxybenzoyl)benzamido]-2,3-dihydro-1H-inden-2-yl]pyridine-4-carboxamide]	> 20	105	111	118	119	127	126	140	154	175
O=C(N[C@@H]1CCC[C@H]1NC(=O)c1ccc(C(=O)c2ccccc2)cc1)c1ccncc1 [Example A15, N-[(1R,2R)-2-(4-benzoylbenzamido)cyclopentyl]pyridine-4-carboxamide]	7.84	98.5	106	111	114	110	107	110	122	136
COc1ccc(OC)c(C(=O)c2ccc(C(=O)N[C@@H]3CCC[C@H]3NC(=O)c3ccncc3)cc2)c1F [Example A17, N-[(1R,2R)-2-[4-(2-fluoro-3,6-dimethoxybenzoyl)benzamido]cyclopentyl] pyridine-4-carboxamide]	1.83	99.7	100	104	99.8	103	113	112	121	119
COc1ccc(O)c(C(=O)c2ccc(C(=O)N[C@@H]3CCC[C@H]3NC(=O)c3ccncc3)cc2)c1F [Example A18, N-[(1R,2R)-2-[4-(2-fluoro-6-hydroxy-3-methoxybenzoyl)benzamido]cyclopentyl] pyridine-4-carboxamide]	6.61	113	115	119	120	121	133	130	131	140
